Data: a melting point compilation (Tetko et al.; mined from patent text by program, amines drawn as free bases though some values may be those of a salt)

Row | Compound | melting point
1 | COc1cc2c(cc1Nc1ncc(Cl)c(Nc3ccccc3S(=O)(=O)N(C)C)n1)CCN(CC(C)O)CC2 (stereo not given) | 183 to 185 °C
2 | Cn1c(=O)oc2cc(CCCN3CCOCC3)cnc21 | < 80 °C
3 | CCCCCCCCCCCCCCCCCCOc1cc2ccccc2cc1O | 60 to 62 °C
4 | C/C(=C\c1ccc(C(=O)O)cc1)c1ccc2c(c1)CCCCC2 | 198 °C
5 | CN1CCC[C@H]1Cn1nc(-c2c(-c3ccccc3)nn3ccccc23)ccc1=O | 114 to 117 °C
6 | COc1cc(/C=C/S(=O)(=O)CS(=O)(=O)/C=C/c2cc(OC)c(OC)c(OC)c2)cc(OC)c1OC | 127 to 129 °C
7 | N#Cc1c(N2CCCCC2)cc(-c2ccccc2)c2c1C(=O)c1ccccc1-2 | 220 to 222 °C
8 | COC(=O)c1sc(C)c(Br)c1OC(=S)N(C)C | 152 to 154 °C
9 | COC(=O)C(OC)Oc1ccc(C2CCN(c3ccncc3)CC2)cc1 (stereo not given) | 127 to 129 °C
10 | Cc1noc(NC(=O)N2CCN(c3nccc(-c4ccccc4F)n3)CC2)c1C | 194 to 195 °C
11 | CCCCc1nc2c(N)nc(C)c(C)c2n1CCCCNS(=O)(=O)N(C)C | 130 to 131 °C
12 | CCNC(=S)NC1=Nc2ccc(OC(F)(F)F)cc2SC1 | 199 to 201 °C
13 | CS(=O)c1ccc(-c2nn(Cc3cccnc3)c(=O)cc2-c2ccc(Cl)cc2)cc1 (stereo not given) | 155 °C
14 | CC1N(CCCCCl)C(=O)C(C)(C)S1(=O)=O (stereo not given) | 71 to 73 °C
15 | CC(c1oc2ccccc2c(=O)c1-c1cccc(F)c1)n1nc(-c2ccc(C=O)o2)c2c(N)ncnc21 (stereo not given) | 215 to 217 °C
16 | CC(C)(C=NO)C1CCN(CC#Cc2cc(C(F)(F)F)cc(C(F)(F)F)c2)CC1 | 63 to 65 °C
17 | CC(C)Cn1c(CNC(=O)OC(C)(C)C)c(-c2ccc(F)cc2)c2cc(OCC(N)=O)ccc2c1=O | 218 to 219 °C
18 | Cc1ccc2c(c1)c(-c1ccnc3c(C(F)(F)F)cccc13)c(C)n2CC(=O)O | 145 °C
19 | CC(C)(C(=O)O)C(=O)NCc1cn(C(c2ccccc2)(c2ccccc2)c2ccccc2)cn1 | 174 to 175 °C
20 | CCOC(=O)OC1CCC2(C)C3=C(CCC2C1)C1=CCC(C(C)CCCC(C)C)C1(C)CC3 (stereo not given) | 101 to 106 °C
21 | O=C(NC(Cc1ccc(OCc2ccc(F)cc2)cc1)C(=O)O)c1cc2cc(-c3ccc(Cl)cc3)ccc2s1 (stereo not given) | 189 to 190 °C
22 | CCN1CCNC(=O)c2ccc(Nc3ncc(Cl)c(N[C@@H]4CCCC[C@H]4NS(C)(=O)=O)n3)cc21 | 216 to 220 °C
23 | CCc1ccc2c(c1)CCC21CCc2cc(CC)ccc21 | 236 to 239 °C

Row | Compound | melting point
24 | COc1ccc2c(C3OC(=O)NC3=O)c(OC)ccc2c1 (stereo not given) | 175 to 180 °C
25 | O=C(Nc1ccc2cc(CN3CCCC3)cnc2c1)N1CCC(c2ccc(Cl)cc2)CC1 | 249 to 251 °C
26 | Brc1c(NC2=NCCN2)ccc2c1NCCN2 | 218 to 220 °C
27 | Cc1ccc(S(=O)(=O)NN=C2CCCCCCCC2)cc1 | 135 to 138 °C
28 | c1ccc2c(c1)nc(NCCN1CCNCC1)c1c3ccccc3[nH]c21 | 210 to 211 °C
29 | CS(=O)(=O)c1ccc(-c2cc(CO)cn2-c2ccc(F)cc2)cc1 | 88 to 90 °C
30 | O=C(O)COc1ccc(C(=O)c2ccc(Cl)c(Cl)c2)c(Cl)c1Cl | 165 to 167 °C
31 | Cc1ccc(C2C3=C(CC(C)(C)CC3=O)NC3=C2C(=O)CC(C)(C)C3)cc1C | > 300 °C
32 | CCCCCCCCCN(CCCCC)CCC(=O)O | 168 to 176 °C
33 | CC(=O)SCCC(=O)N1CCN(C)CC1C(=O)O (stereo not given) | 92 to 98 °C
34 | Cc1cc(-c2ccc(C(F)(F)F)cc2)nc(-c2cccc(-c3cccc(S(N)(=O)=O)c3)n2)c1 | 229 °C
35 | Clc1ccc2ccc(/C=C/c3ccc(CN4CCc5cccc(CCc6nnn[nH]6)c54)cc3)nc2c1 | 83 to 87 °C
36 | CC(C)(C)c1cc(OCC(=O)OCCN2C(C)(C)CC(OC(=O)COc3ccc(O)c(C(C)(C)C)c3)CC2(C)C)ccc1O | 74 to 77 °C
37 | COc1cccc(-c2nnc(-c3ccoc3)o2)c1 | 70 to 71 °C
38 | CCn1nc2c(N)nc3c(c2c1CC1(O)CCCCC1)CCCC3 | 232 to 234 °C
39 | CCCCCCCCCCCCCCCCCCNC(=O)OCC(CNS(=O)(=O)CCCCl)OC(=O)NC (stereo not given) | 102 to 104 °C
40 | O=[N+]([O-])c1sc2ccc(F)cc2c1Br | 129 to 130 °C
41 | Nc1ccc2oc3ccc(OC(F)F)c(C(=O)Nc4c(Cl)cncc4Cl)c3c2c1 | > 270 °C
42 | CCOC(=O)Cn1c2c([nH]c(=O)c1=O)CCC1=C2C=C(n2ccc(C=O)c2)CC1 | > 250 °C
43 | Cc1nnc2n1-c1ccc(C#CCN3C(=O)CCc4ccccc43)cc1C(c1ccccc1F)=NC2 | 236 to 239 °C
44 | c1ccc(CP(Cc2ccccc2)Cc2ccccc2-c2ccccc2CP(Cc2ccccc2)Cc2ccccc2)cc1 | 163 to 167 °C
45 | COc1cc(Cl)cc(Cl)c1C(=O)NC(C)(C)CO | 131 to 132 °C
46 | COc1ccc(S(=O)(=O)c2c(-c3ccccc3)oc3ccccc23)cc1 | 146 to 148 °C

Row | Compound | melting point
47 | COC(=O)c1cc(-c2ccc(OC)cc2)nn(Cc2ccc([N+](=O)[O-])cc2)c1=O | 215 to 217 °C
48 | CC[C@@H](c1ccccc1)N(Cc1ccc(C(=O)NCC(=O)O)cc1)S(=O)(=O)c1ccc(Cl)cc1 | 136 to 139 °C
49 | CC(=O)NNC1=Nc2sc(Cl)cc2C(c2ccccn2)=NC1 | 193 to 195 °C
50 | Cc1ccc(NC(=O)N(C)Cc2cccc3c2CN(C2CCC(=O)NC2=O)C3=O)cc1Cl (stereo not given) | 248 to 250 °C
51 | CCCCC(=O)c1ccc(-c2ccc(C(=O)Nc3ccc(OC)c(N4CCN(C)CC4)c3)cc2C)cc1 | 65 to 67 °C
52 | CC1CC(=O)NN=C1c1ccc(Nc2nc(=O)c3ccccc3[nH]2)cc1 (stereo not given) | 313 to 319 °C
53 | Cc1cc(C)n(C)c(=O)n1 | 58 to 60 °C
54 | COc1cccc(N(C)C(=O)Oc2ccc(C(C)C)cc2)n1 | 64 to 65 °C
55 | COc1cc2c3c(c1OC)CN(C)CC3Cc1cc3c(cc1-2)OCO3 (stereo not given) | 169 to 172 °C
56 | COc1cc2cnc(O)nc2cc1OC | 260 to 263 °C
57 | COc1ccc(C(N)=Nc2ccc(C(=O)O)cc2)cc1C12CC3CC(CC(C3)C1)C2 | 263 to 265 °C
58 | CC(C(=O)c1ccccc1)(c1ccccc1)c1ccccc1Sc1ccccc1C(C)(C(=O)c1ccccc1)c1ccccc1 (stereo not given) | 101 °C
59 | O=C1NC(=O)c2c(Br)c(Sc3ccc(Cl)cc3)c(Sc3ccc(Cl)cc3)c(Br)c21 | 310 to 315 °C
60 | CC(C)(C)c1cc(CSCCC(=O)NCCCCCCNC(=O)CCSCc2cc(C(C)(C)C)c(O)c(C(C)(C)C)c2)cc(C(C)(C)C)c1O | 126 to 130 °C
61 | CCN(C(=O)C1CCC1)c1cccc(-c2ccc3nnc(C)n3n2)c1 | 157 to 159 °C
62 | C[C@H](NC(=O)[C@@H](Cc1ccccc1)NS(=O)(=O)Cc1ccccc1)C(=O)NC1CCc2nc(N)sc2C1 (stereo not given in full) | 122 to 125 °C
63 | CN(C)c1c(F)c(F)c(F)c2c1c(=O)c(C(=O)O)cn2C1CC1 | 160 to 163 °C
64 | CCNC(=O)c1ccccc1Nc1nc(Nc2cc3c(cc2OC)CCN(CC(=O)NC)CC3)ncc1Cl | 99 to 110 °C
65 | COc1cc(OC(c2ccccc2)c2ccccc2)ccc1/C=C/c1cc(/C=C/c2ccc3cc[nH]c3c2)[nH]n1 | 114 to 119 °C
66 | COC1(OCCCCl)C=CC(C(=O)O)=CC1 (stereo not given) | 157 to 159 °C
67 | CCCCC(CC(=O)O)c1cc(Cl)c(OC)cc1OC (stereo not given) | 91 to 92 °C
68 | C=CN1Cc2ccccc2-c2ccc(Cl)cc2C1=O | 170 to 172 °C
69 | CN1CC=C(c2cc3cc(Cl)ccc3o2)CC1 | 108 to 118 °C

Next, values leading:

Row | melting point | Compound
70 | 124 to 125 °C | CCOC(=O)C1Cc2cc3c(-c4ccccc4F)noc3c(C)c2O1 (stereo not given)
71 | 157 to 159 °C | O=C(O)C(=O)CC(=O)c1ccnn1Cc1ccc(F)cc1
72 | 280 °C | CS(=O)(=O)N1CCCn2c(nc3c(N)nc4ccccc4c32)C1
73 | 99 to 100 °C | CS(=O)CC(=O)c1ccccc1N (stereo not given)
74 | 108 to 110 °C | NC(=O)c1c(-c2ccccc2)csc1O
75 | 56 to 58 °C | O=C1C=CC(OCc2ccccc2)N1S(=O)(=O)c1ccccc1 (stereo not given)
76 | 216 to 217 °C | Cc1nc(NC(=O)c2ccccc2)sc1C(=O)NCc1cccc(F)c1
77 | 205 to 207 °C | Cc1cc(C)c2c(n1)N(C(=O)Cl)c1ccccc1N(C)C2=O
78 | 90 to 91.5 °C | Cc1cccc(NC(C(N)=O)c2ccccc2C)c1 (stereo not given)
79 | 97 to 99 °C | CN1CCc2c(cc3ccccc3c2N)C1
80 | 174 to 175 °C | CN(CC(=O)[C@@H](N)Cc1ccccc1)C(=O)N1CCC[C@H]1C(=O)O
81 | 140 to 142 °C | CC(C)CC(=O)c1c(-c2ccc3cc(OCC(=O)O)cc(Br)c3c2)oc2ccccc12
82 | 85 °C | Oc1ccccc1OCCOCCOc1ccccc1O
83 | 70 to 72 °C | Brc1ccc2c(c1)CC(Cc1ccccc1)O2 (stereo not given)
84 | 60 to 61 °C | CC(=O)CC(C)c1ccc(-c2ccccc2F)cc1 (stereo not given)
85 | 156 to 157 °C | CCOCC1OC(n2cc(C(F)(F)F)c(=O)n(C(=O)c3ccccc3)c2=O)CC1O (stereo not given)

Row | melting point | Compound
86 | 186 to 188 °C | CCN1C(=O)Cc2cc3c(cc21)C(=O)c1ccccc1CO3
87 | 150 °C | CSC(=NC(=O)CS(C)(=O)=O)N(C)N=Cc1ccccc1
88 | 88.5 to 90.5 °C | CCOC(=O)CNC(=O)COc1ccc(CCl)cc1
89 | 182 to 183 °C | CNC(=O)c1ccc(-c2nn(Cc3ccccc3)c3ccccc23)o1
90 | 168 to 169 °C | CC(C)n1c(=O)c(C(=O)O)cc2ccccc21
91 | 92 to 94 °C | Nc1ncc(-c2ccccc2)nc1SC1CCCC1
92 | 228 to 234 °C | CC(=O)c1ccc2nc(N)[nH]c2c1
93 | 233 to 234 °C | CN1C(=O)SC(Cc2cn(-c3ccccc3)nc2O)C1=O (stereo not given)
94 | 172 °C | Cc1cccc(P(=O)(O)c2cccc(C)c2)c1
95 | 120 to 122 °C | CN1CCN(CCCc2cc3ccccc3c(=O)[nH]2)CC1
96 | > 300 °C | Cc1ccccc1NC(=O)Nc1ccc(N)cc1
97 | 202 °C | COc1ccc(CS(=O)CC(=O)NO)cc1OC (stereo not given)
98 | 142 to 144 °C | O=C(CN1C(=O)CNC1=O)OCc1ccccc1
99 | 192 to 194 °C | NNC(=O)CC1(O)c2ccccc2C=Cc2ccccc21
100 | 129 to 130 °C | CC(=O)NC(C)(C)c1ccc(CN2CCN(c3ccccn3)CC2)cc1
